Among the data in patent EP1322622B1, “NEW N, N'-DISUBSTITUTED BENZIMIDAZOLONE DERIVATIVES WITH AFFINITY AT THE SEROTONIN AND DOPAMINE RECEPTORS” (Sprout Pharmaceuticals, Inc., priority 2000, dated 2002) are inhibition values, retold here.

Test [1] has as its target T1, 5-HT1A human receptors (Homo sapiens, UniProt P08908).
T1 construct: expressed in transfected cells; host or cells: CHO cells
T1 sequence (P08908 1-422): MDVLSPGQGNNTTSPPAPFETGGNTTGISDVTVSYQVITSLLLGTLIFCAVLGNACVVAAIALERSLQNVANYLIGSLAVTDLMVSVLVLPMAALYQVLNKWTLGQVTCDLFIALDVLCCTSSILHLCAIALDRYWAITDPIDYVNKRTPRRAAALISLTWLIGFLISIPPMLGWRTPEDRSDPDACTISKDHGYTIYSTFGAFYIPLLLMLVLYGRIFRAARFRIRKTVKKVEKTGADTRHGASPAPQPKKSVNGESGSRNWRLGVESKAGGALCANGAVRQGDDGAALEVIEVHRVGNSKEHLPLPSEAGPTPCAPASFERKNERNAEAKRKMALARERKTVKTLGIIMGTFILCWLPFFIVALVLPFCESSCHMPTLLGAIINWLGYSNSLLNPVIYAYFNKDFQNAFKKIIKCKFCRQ
The test can be described thus: 5-HT1A Radioligand Receptor Binding Assay ([3H]-8-OH-DPAT, CHO cell membranes). As to conditions: compound at 10^-7 M, singlicate; [3H]-8-OH-DPAT 0.6-0.7 nM; read-out: 5-HT1A receptor binding assay % inhib. (10^-7 M). How it is done:
Membranes from CHO cells, expressing 5-HT1A human receptors were suspended in incubation buffer.
The compounds were tested in singlicate at one concentration (10^-7 M) in a total volume of 1000 µl. 980 µl of diluted membranes, 10 µl DMSO or unlabelled ligand and 10 µl of [^3H]-8-OH-DPAT (0.6-0.7 nM) were incubated for 60 min at 27 °C. The reaction was stopped by rapid filtration through Tomtec cell Harvester (48 wells) using Filtermat B (presoaked in 0.1% PEI) filters. […] Non specific binding was determined in the presence of 5-HT (10^-5 M).
(§1) The specific radioligand binding to the receptor was defined by the difference between total binding and non specific binding, determined in the presence of an excess of unlabelled ligand. Results were expressed as percentage of control specific binding obtained in the presence of the compounds.
The affinity values (IC50) for the compounds were obtained by a non linear least squares regression analysis on the basis of a one binding site model.

Test [2] addresses T2, D4 human receptors (Homo sapiens, UniProt P21917).
T2 construct: expressed in transfected cells; host or cells: CHO cells
T2 sequence (P21917 1-419): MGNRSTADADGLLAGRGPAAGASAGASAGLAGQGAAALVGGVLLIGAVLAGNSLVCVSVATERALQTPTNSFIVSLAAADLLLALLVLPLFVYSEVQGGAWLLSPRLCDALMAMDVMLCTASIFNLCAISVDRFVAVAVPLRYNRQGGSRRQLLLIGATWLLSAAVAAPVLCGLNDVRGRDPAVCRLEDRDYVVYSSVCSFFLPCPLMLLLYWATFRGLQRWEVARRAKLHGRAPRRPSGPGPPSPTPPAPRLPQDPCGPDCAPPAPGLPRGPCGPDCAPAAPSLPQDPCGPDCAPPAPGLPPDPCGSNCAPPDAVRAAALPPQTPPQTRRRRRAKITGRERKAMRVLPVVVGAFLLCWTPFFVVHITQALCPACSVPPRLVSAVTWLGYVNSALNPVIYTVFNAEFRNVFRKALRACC
Nature of the test: D4 Radioligand Receptor Binding Assay ([3H] YM-09151-2, CHO cell membranes). As to conditions: compound at 10^-7 M, singlicate; [3H] YM-09151-2 0.15-0.25 nM; read-out: D4 receptor binding assay % inhib. (10^-7 M). How it is done:
Membranes from CHO cells, expressing D4 human receptors were suspended in incubation buffer.
Binding assays were performed in MultiProbe 204 pipetting system (Packard), according to a predetermined mapping, consistent with the software Screen. The compounds were tested in singlicate at one concentration (10^-7 M) in a total volume of 1000 µl (980 µl of diluted membranes, 10 µl DMSO or unlabelled ligand and 10 µl of [^3H] YM-09151-2 (0.15-0.25 nM). After incubation for 120 min at 27 °C, the reaction was stopped by rapid filtration through Tomtec cell Harvester (48 wells) using Filtermat B (presoaked in 0.1% PEI) filters. Filters were washed with ice-cold 50 mM Tris-HCl (pH 7.4) buffer (9 x 700 µl), dryed, covered with MeltiLex B/HS (Wallac) scintillator sheets and heated in oven at 80-90 °C for about 10 min, transferred into plastic sample bags (Wallac), sealed and put into 1024 Beta Plate scintillation counter (Wallac). Non specific binding was determined in the presence of clozapine dissolved in DMSO to a final concentration of 10^-5 M.
as §1

Turning to `O=c1n(CCO)c2ccccc2n1CCCCN1CCN(c2ccccn2)CC1` [compound 59], the values for the inhibition at 0.1 µM in test [1] and in test [2] were 75% and 51%, respectively.

Regarding `O=c1n(CCO)c2ccccc2n1CCCCN1CCc2c([nH]c3ccccc23)C1` [compound 62], the inhibition at 0.1 µM in test [1] was determined as 73%; in test [2], 96%.

On to `O=c1n(CCO)c2ccccc2n1CCCCN1CC=C(c2ccccc2)CC1` [compound 65], for which the inhibition at 0.1 µM worked out at 52% in test [1] and 74% in test [2].

With `O=c1n(CCO)c2ccccc2n1CCCCN1CCN(c2ccc(Cl)c(Cl)c2)CC1` [compound 66], the inhibition at 0.1 µM in test [1] came out at 65%; in test [2], 99%.

Take `COc1ccccc1N1CCN(CCCCn2c(=O)n(CCO)c3ccccc32)CC1` [compound 74]: the inhibition at 0.1 µM was 92% in test [1] and 62% in test [2].

As for `CCNC(=O)OCCn1c(=O)n(CCCCN2CCN(c3ccccc3)CC2)c2ccccc21` [compound 75], the inhibition at 0.1 µM in test [1] was found to be 67%; in test [2], 54%.

In the case of `O=c1n(CCN2CCCCC2)c2ccccc2n1CCN1CCN(c2cccc(C(F)(F)F)c2)CC1` [compound 149], the inhibition at 0.1 µM was found to be 88% in test [1] and 35% in test [2].

`O=c1n(CCN2CC=C(c3ccccc3)CC2)c2ccccc2n1CCN1CCCCC1` [compound 150]: the inhibition at 0.1 µM stood at 57% in test [1] and 52% in test [2].

In the case of `COc1ccccc1N1CCN(CCn2c(=O)n(CCN3CCCCC3)c3ccccc32)CC1` [compound 159], the inhibition at 0.1 µM in test [1] turned out to be 85%; in test [2] it was 50%.

In the case of `CCNC(=O)OCCn1c(=O)n(CCN2CCN(c3ccccc3OC)CC2)c2ccccc21` [compound 216], the figures for the inhibition at 0.1 µM in test [1] and in test [2] were 92% and 44%, respectively.

As for `O=c1n(CCN2CCOCC2)c2ccccc2n1CCN1CCN(c2cccc(Cl)c2)CC1` [compound 224], the values for the inhibition at 0.1 µM in test [1] and in test [2] were 98% and 51%, respectively.

As to `O=c1n(CCN2CC=C(c3ccccc3)CC2)c2ccccc2n1CCN1CCOCC1` [compound 229], the inhibition at 0.1 µM in test [1] is 67%; in test [2] it was 34%.

In the case of `CS(=O)(=O)NCCn1c(=O)n(CCN2CCN(c3cccc(Cl)c3)CC2)c2ccccc21` [compound 241], the inhibition at 0.1 µM in test [1] was 69%; in test [2], 32%.

Regarding `COc1ccccc1N1CCN(CCn2c(=O)n(CCNS(C)(=O)=O)c3ccccc32)CC1` [compound 255], the inhibition at 0.1 µM was found to be 58% in test [1] and 33% in test [2].

For the compound `Cc1cccc(N2CCN(CCn3c(=O)n(CCNS(C)(=O)=O)c4ccccc43)CC2)c1` [compound 256], the results for the inhibition at 0.1 µM in test [1] and in test [2] were 59% and 51%, respectively.

`O=c1n(CC=CCN2CCc3c([nH]c4ccccc34)C2)c2ccccc2n1CCN1CCOCC1` [compound 265]: the inhibition at 0.1 µM was 55% in test [1] and 78% in test [2].

On to `COCCn1c(=O)n(CC=CCN2CCN(c3cccc(Cl)c3)CC2)c2ccccc21` [compound 280], for which the inhibition at 0.1 µM in test [1] came out at 93%; in test [2] it was 38%.

Turning to `COCCn1c(=O)n(C/C=C\CN2CCN(c3ccc(Cl)c(Cl)c3)CC2)c2ccccc21` [compound 286], the results for the inhibition at 0.1 µM in test [1] and in test [2] were 65% and 87%, respectively.

Take `COCCn1c(=O)n(C/C=C/CN2CCN(c3ccccc3)CC2)c2ccccc21` [compound 293]: the inhibition at 0.1 µM in test [1] turned out to be 89%; in test [2], 32%.

In the case of `COCCn1c(=O)n(C/C=C/CN2CCN(c3ccc(Cl)c(Cl)c3)CC2)c2ccccc21` [compound 303], the results for the inhibition at 0.1 µM in test [1] and in test [2] were 71% and 70%, respectively.

For the compound `O=c1n(C/C=C\CN2CCN(C(c3ccccc3)c3ccc(Cl)cc3)CC2)c2ccccc2n1CCN1CCCCC1` (stereo not drawn) [compound 311], the inhibition at 0.1 µM in test [1] is 59%; in test [2] it was 60%.
